Tested on: caecal microbiota cultures
Experiment: 16S sequencing of total (DNA) and active (cDNA) community in caecal microbiota cultures, BBR vs Control
Type: cell-based, broiler chicken
Settings: 48 h; for L2FC BBRRNA vs ControlRNA: active (cDNA) community; for L2FC BBRRNA vs BBRDNA: active vs total community in BBR group; for L2FC BBRDNA vs ControlDNA: total (DNA) community
[1] = OTU 563086 ([Ruminococcus] torques group)
[2] = OTU 574038 (uncultured Lachnospiraceae)
[3] = OTU 579244 (Ruminiclostridium 9)
[4] = OTU 592616 (Erysipelatoclostridium)
[5] = OTU 647215 (uncultured Ruminococcaceae)
[6] = OTU 843454 (Family_Lachnospiraceae)
[7] = OTU 1094991 (Ruminococcaceae UCG-005)
[8] = OTU 2265722 (uncultured Lachnospiraceae)
[9] = OTU 4404181 (uncultured Ruminococcaceae)
[10] = OTU New.CleanUp.ReferenceOTU4902 (Erysipelatoclostridium)
[11] = OTU New.ReferenceOTU85 (Anaerofilum)
[12] = OTU New.ReferenceOTU111 (Lachnospiraceae UCG-010)
[13] = OTU New.ReferenceOTU118 (Erysipelatoclostridium)
[14] = OTU New.ReferenceOTU144 (Erysipelatoclostridium)
[15] = OTU New.ReferenceOTU364 (Streptococcus)
[16] = OTU New.ReferenceOTU377 (uncultured Ruminococcaceae)
[17] = OTU New.ReferenceOTU392 (Intestinimonas)
[18] = OTU New.ReferenceOTU395 (Ruminiclostridium 9)
[19] = OTU New.ReferenceOTU429 (Erysipelatoclostridium)
[20] = OTU New.ReferenceOTU462 (Erysipelatoclostridium)
[21] = OTU New.ReferenceOTU476 (Escherichia-Shigella)
[22] = OTU New.ReferenceOTU486 (Streptococcus)
[23] = OTU New.ReferenceOTU551 (uncultured Ruminococcaceae)

`COc1ccc2cc3[n+](cc2c1OC)CCc1cc2c(cc1-3)OCO2` [Berberine, Berberine chloride] was tested, and the “L2FC BBRRNA vs ControlRNA” value [1] was -0.24, the “L2FC BBRRNA vs BBRDNA” value [1] was -1.93 and the “L2FC BBRDNA vs ControlDNA” value [1] was -0.39. For the same compound, the “L2FC BBRRNA vs ControlRNA” value (OTU 564334 (Oscillibacter)) was -0.38, the “L2FC BBRRNA vs BBRDNA” value (OTU 564334 (Oscillibacter)) was 2.35 and the “L2FC BBRDNA vs ControlDNA” value (OTU 564334 (Oscillibacter)) was -0.21. For the same compound, the “L2FC BBRRNA vs ControlRNA” value [2] was -1.65, the “L2FC BBRRNA vs BBRDNA” value [2] was -0.24 and the “L2FC BBRDNA vs ControlDNA” value [2] was -2.16. For the same compound, the “L2FC BBRRNA vs ControlRNA” value [3] was -1.11, the “L2FC BBRRNA vs BBRDNA” value [3] was 2.49 and the “L2FC BBRDNA vs ControlDNA” value [3] was -1.32. The “L2FC BBRRNA vs ControlRNA” value (OTU 585227 (Oscillibacter)) was 0.12, the “L2FC BBRRNA vs BBRDNA” value (OTU 585227 (Oscillibacter)) was 2.44 and the “L2FC BBRDNA vs ControlDNA” value (OTU 585227 (Oscillibacter)) was 0.21. The “L2FC BBRRNA vs ControlRNA” value [4] was 0.37, the “L2FC BBRRNA vs BBRDNA” value [4] was 1.49 and the “L2FC BBRDNA vs ControlDNA” value [4] was 0.67. The “L2FC BBRRNA vs ControlRNA” value [5] was 0.58, the “L2FC BBRRNA vs BBRDNA” value [5] was 2.24 and the “L2FC BBRDNA vs ControlDNA” value [5] was 0.49. For the same compound, the “L2FC BBRRNA vs ControlRNA” value (OTU 813944 (Lactobacillus)) was 1.85, the “L2FC BBRRNA vs BBRDNA” value (OTU 813944 (Lactobacillus)) was 1.33 and the “L2FC BBRDNA vs ControlDNA” value (OTU 813944 (Lactobacillus)) was 1.53. The “L2FC BBRRNA vs ControlRNA” value (OTU 842786 (Intestinimonas)) was -0.59, the “L2FC BBRRNA vs BBRDNA” value (OTU 842786 (Intestinimonas)) was 2.24 and the “L2FC BBRDNA vs ControlDNA” value (OTU 842786 (Intestinimonas)) was -0.09. The “L2FC BBRRNA vs ControlRNA” value [6] was 0.55, the “L2FC BBRRNA vs BBRDNA” value [6] was -1.17 and the “L2FC BBRDNA vs ControlDNA” value [6] was -0.19. The “L2FC BBRRNA vs ControlRNA” value (OTU 847728 (Ruminococcus 2)) was -0.72, the “L2FC BBRRNA vs BBRDNA” value (OTU 847728 (Ruminococcus 2)) was 1.54 and the “L2FC BBRDNA vs ControlDNA” value (OTU 847728 (Ruminococcus 2)) was -0.88. The “L2FC BBRRNA vs ControlRNA” value [7] was -1.26, the “L2FC BBRRNA vs BBRDNA” value [7] was 1.01 and the “L2FC BBRDNA vs ControlDNA” value [7] was -1.67. The “L2FC BBRRNA vs ControlRNA” value (OTU 1107057 (Anaerostipes)) was -0.90, the “L2FC BBRRNA vs BBRDNA” value (OTU 1107057 (Anaerostipes)) was -2.55 and the “L2FC BBRDNA vs ControlDNA” value (OTU 1107057 (Anaerostipes)) was -1.14. For the same compound, the “L2FC BBRRNA vs ControlRNA” value (OTU 1132942 (Butyricicoccus)) was 0.64, the “L2FC BBRRNA vs BBRDNA” value (OTU 1132942 (Butyricicoccus)) was -3.15 and the “L2FC BBRDNA vs ControlDNA” value (OTU 1132942 (Butyricicoccus)) was 0.37. The “L2FC BBRRNA vs ControlRNA” value [8] was 2.76, the “L2FC BBRRNA vs BBRDNA” value [8] was -0.46 and the “L2FC BBRDNA vs ControlDNA” value [8] was 1.22. The “L2FC BBRRNA vs ControlRNA” value [9] was 0.08, the “L2FC BBRRNA vs BBRDNA” value [9] was -1.72 and the “L2FC BBRDNA vs ControlDNA” value [9] was 0.40. For the same compound, the “L2FC BBRRNA vs ControlRNA” value [10] was -2.19, the “L2FC BBRRNA vs BBRDNA” value [10] was -0.05 and the “L2FC BBRDNA vs ControlDNA” value [10] was -1.03. The “L2FC BBRRNA vs ControlRNA” value [11] was -1.45, the “L2FC BBRRNA vs BBRDNA” value [11] was -0.84 and the “L2FC BBRDNA vs ControlDNA” value [11] was -1.62. For the same compound, the “L2FC BBRRNA vs ControlRNA” value [12] was -1.27, the “L2FC BBRRNA vs BBRDNA” value [12] was -1.92 and the “L2FC BBRDNA vs ControlDNA” value [12] was -0.42. The “L2FC BBRRNA vs ControlRNA” value [13] was -1.90, the “L2FC BBRRNA vs BBRDNA” value [13] was -0.75 and the “L2FC BBRDNA vs ControlDNA” value [13] was -0.82. For the same compound, the “L2FC BBRRNA vs ControlRNA” value [14] was 0.42, the “L2FC BBRRNA vs BBRDNA” value [14] was 1.64 and the “L2FC BBRDNA vs ControlDNA” value [14] was 0.55. For the same compound, the “L2FC BBRRNA vs ControlRNA” value [15] was -0.92, the “L2FC BBRRNA vs BBRDNA” value [15] was -0.91 and the “L2FC BBRDNA vs ControlDNA” value [15] was -1.70. The “L2FC BBRRNA vs ControlRNA” value [16] was -0.22, the “L2FC BBRRNA vs BBRDNA” value [16] was 1.91 and the “L2FC BBRDNA vs ControlDNA” value [16] was -0.81. For the same compound, the “L2FC BBRRNA vs ControlRNA” value [17] was -0.28, the “L2FC BBRRNA vs BBRDNA” value [17] was 1.69 and the “L2FC BBRDNA vs ControlDNA” value [17] was -0.31. The “L2FC BBRRNA vs ControlRNA” value [18] was -1.01, the “L2FC BBRRNA vs BBRDNA” value [18] was 2.37 and the “L2FC BBRDNA vs ControlDNA” value [18] was -1.00. The “L2FC BBRRNA vs ControlRNA” value [19] was 0.23, the “L2FC BBRRNA vs BBRDNA” value [19] was 1.73 and the “L2FC BBRDNA vs ControlDNA” value [19] was 0.65. The “L2FC BBRRNA vs ControlRNA” value [20] was -0.55, the “L2FC BBRRNA vs BBRDNA” value [20] was 1.51 and the “L2FC BBRDNA vs ControlDNA” value [20] was -0.78. The “L2FC BBRRNA vs ControlRNA” value [21] was -0.42, the “L2FC BBRRNA vs BBRDNA” value [21] was 1.67 and the “L2FC BBRDNA vs ControlDNA” value [21] was -0.75. The “L2FC BBRRNA vs ControlRNA” value [22] was -0.10, the “L2FC BBRRNA vs BBRDNA” value [22] was -0.33 and the “L2FC BBRDNA vs ControlDNA” value [22] was -2.01. For the same compound, the “L2FC BBRRNA vs ControlRNA” value [23] was 0.00, the “L2FC BBRRNA vs BBRDNA” value [23] was 2.70 and the “L2FC BBRDNA vs ControlDNA” value [23] was 0.58.

From article PMC10733463, “Berberine-microbiota interplay: orchestrating gut health through modulation of the gut microbiota and metabolic transformation into bioactive metabolites” (Frontiers in Pharmacology, 2023)
